Test results: ChEMBL document CHEMBL1137634, “A cysteine protease inhibitor cures Chagas' disease in an immunodeficient-mouse model of infection” (2007)
Activity calls are given as the source filed them. The rule behind the calls is not given here.

What was measured:
Trypanosoma cruzi [1] = test: Antitrypanosomal activity against Trypanosoma cruzi CA1/72 infected in immunocompetent C3HeB/FeJ mouse assessed as protection against lethal acute Chaga's disease at 50 mg/kg, ip twice daily for 27 days; format: functional; conditions: route intraperitoneal
Trypanosoma cruzi [2] = test: Antitrypanosomal activity against Trypanosoma cruzi CA1/72 infected in recombinase Rag1 deficient mouse blood assessed as Trypanosoma-specific kinetoplast DNA in blood at 50 mg/kg, ip twice daily for 27 days measured after 80 to 160 days post-infection by PCR; format: functional, organism-based; design: dose 50 mg/kg
Trypanosoma cruzi [3] = test: Antitrypanosomal activity against Trypanosoma cruzi CA1/72 infected in recombinase Rag1 deficient mouse assessed as Trypanosoma-specific kinetoplast DNA in spleen at 50 mg/kg, ip twice daily for 27 days by PCR; format: functional, organism-based; design: dose 50 mg/kg
Trypanosoma cruzi [4] = test: Antitrypanosomal activity against Trypanosoma cruzi CA1/72 infected in recombinase Rag1 deficient mouse assessed as protection against colon infection at 50 mg/kg, ip twice daily for 27 days measured at 16 to 24 weeks postinfection by histopathology; format: functional, organism-based; design: dose 50 mg/kg
Trypanosoma cruzi [5] = test: Antitrypanosomal activity against Trypanosoma cruzi CA1/72 infected in recombinase Rag1 deficient mouse assessed as Trypanosoma-specific kinetoplast DNA in heart at 50 mg/kg, ip twice daily for 27 days by PCR; format: functional, organism-based; design: dose 50 mg/kg
Trypanosoma cruzi [6] = test: Antitrypanosomal activity against Trypanosoma cruzi CA1/72 infected in recombinase Rag1 deficient mouse assessed as protection against liver infection at 50 mg/kg, ip twice daily for 27 days measured at 16 to 24 weeks postinfection by histopathology; format: functional, organism-based; design: dose 50 mg/kg
Trypanosoma cruzi [7] = test: Antitrypanosomal activity against Trypanosoma cruzi CA1/72 infected in recombinase Rag1 deficient mouse assessed as protection against skeletal muscle infection at 50 mg/kg, ip twice daily for 27 days measured at 16 to 24 weeks postinfection by histopathology; format: functional, organism-based; design: dose 50 mg/kg; conditions: Muscle tissue
Trypanosoma cruzi [8] = test: Antitrypanosomal activity against Trypanosoma cruzi CA1/72 infected in recombinase Rag1 deficient mouse assessed as Trypanosoma-specific kinetoplast DNA in blood at 50 mg/kg, ip twice daily for 27 days by PCR; format: functional, organism-based; design: dose 50 mg/kg
Trypanosoma cruzi [9] = test: Antitrypanosomal activity against Trypanosoma cruzi CA1/72 infected in recombinase Rag1 deficient mouse assessed as survival from lethal infection at 50 mg/kg, ip twice daily for 27 days; format: functional; conditions: route intraperitoneal
Trypanosoma cruzi [10] = test: Antitrypanosomal activity against Trypanosoma cruzi CA1/72 infected in recombinase Rag1 deficient mouse assessed as Trypanosoma-specific kinetoplast DNA in liver at 50 mg/kg, ip twice daily for 27 days by PCR; format: functional, organism-based; design: dose 50 mg/kg
Trypanosoma cruzi [11] = test: Antitrypanosomal activity against Trypanosoma cruzi CA1/72 infected in recombinase Rag1 deficient mouse assessed as protection against spleen infection at 50 mg/kg, ip twice daily for 27 days measured at 16 to 24 weeks postinfection by histopathology; format: functional, organism-based; design: dose 50 mg/kg
Trypanosoma cruzi [12] = test: Antitrypanosomal activity against Trypanosoma cruzi CA1/72 infected in recombinase Rag1 deficient mouse assessed as protection against lethal acute Chaga's disease at 50 mg/kg, ip twice daily for 27 days; format: functional; conditions: route intraperitoneal
Trypanosoma cruzi [13] = test: Antitrypanosomal activity against Trypanosoma cruzi CA1/72 infected in recombinase Rag1 deficient mouse assessed as protection against heart infection at 50 mg/kg, ip twice daily for 27 days measured at 16 to 24 weeks postinfection by histopathology; format: functional, organism-based; design: dose 50 mg/kg

SMILES: CN1CCN(C(=O)N[C@@H](Cc2ccccc2)C(=O)N[C@H](/C=C/S(=O)(=O)c2ccccc2)CCc2ccccc2)CC1 [K-777]
- Activity (Trypanosoma cruzi [1]): 100%
- Activity (Trypanosoma cruzi [2]): Active
- Activity (Trypanosoma cruzi [3]): Active
- Activity (Trypanosoma cruzi [4]): Active
- Activity (Trypanosoma cruzi [5]): Active
- Activity (Trypanosoma cruzi [6]): Active
- Activity (Trypanosoma cruzi [7]): Active
- Activity (Trypanosoma cruzi [8]): inactive
- Survival (Trypanosoma cruzi [9]): 150 days
- Activity (Trypanosoma cruzi [10]): Active
- Activity (Trypanosoma cruzi [11]): Active
- Activity (Trypanosoma cruzi [12]): 60%
- Activity (Trypanosoma cruzi [13]): Active
